In the NIST ThermoML archive (doi:10.1016/j.jct.2018.05.022):

Assay: molar heat capacity at constant volume
Conditions: Liquid, Vacuum adiabatic calorimetry

C=C(F)C(F)(F)F [2,3,3,3-tetrafluoro-1-propene]
Conditions | molar heat capacity at constant volume [J/K/mol]
240.93 K, 2261 kPa | 92.26
241.09 K, 2247 kPa | 91.8
243.43 K, 4295 kPa | 92.26
243.57 K, 4255 kPa | 92.26
245.94 K, 6342 kPa | 92.37
246.04 K, 6272 kPa | 92.15
248.38 K, 8336 kPa | 92.72
248.49 K, 8272 kPa | 93.06
250.77 K, 10288 kPa | 93.29
250.92 K, 10256 kPa | 93.4
255.49 K, 1804 kPa | 95.79
255.68 K, 1821 kPa | 96.48
257.93 K, 3569 kPa | 97.51
258.1 K, 3572 kPa | 96.48
260.34 K, 5312 kPa | 97.62
260.51 K, 5317 kPa | 97.16
262.77 K, 7065 kPa | 97.51
262.92 K, 7055 kPa | 98.53
265.3 K, 8891 kPa | 98.65
265.35 K, 8807 kPa | 98.87
267.77 K, 10554 kPa | 98.87
267.88 K, 10750 kPa | 99.22
270.17 K, 12276 kPa | 99.56
271.12 K, 1842 kPa | 101.38
273.54 K, 1673 kPa | 102.07
273.64 K, 3435 kPa | 101.5
275.98 K, 3181 kPa | 102.07
276.14 K, 5012 kPa | 101.27
278.43 K, 4690 kPa | 101.95
278.65 K, 6595 kPa | 102.3
280.94 K, 6231 kPa | 102.64
281.16 K, 8178 kPa | 101.61
283.46 K, 7781 kPa | 102.75
283.66 K, 9754 kPa | 102.52
285.91 K, 9285 kPa | 102.98
286.19 K, 11346 kPa | 103.09
288.36 K, 10789 kPa | 104.01
289.3 K, 1701 kPa | 105.15
291.52 K, 1716 kPa | 105.72
291.84 K, 3037 kPa | 105.49
294.09 K, 3043 kPa | 106.4
294.38 K, 4378 kPa | 105.37
296.67 K, 4372 kPa | 106.4
296.96 K, 5740 kPa | 105.49
299.24 K, 5702 kPa | 106.97
299.7 K, 7182 kPa | 105.94
301.83 K, 7034 kPa | 106.86
302.46 K, 8635 kPa | 106.74
304.42 K, 8365 kPa | 107.54
305.12 K, 10039 kPa | 106.29
307.01 K, 9699 kPa | 108
307.78 K, 11440 kPa | 106.97
309.61 K, 11035 kPa | 108.34
310.44 K, 12837 kPa | 107.54
312.2 K, 12365 kPa | 108.8
312.59 K, 3164 kPa | 108.57
315.28 K, 1983 kPa | 109.37
315.29 K, 4301 kPa | 108.8
317.99 K, 5437 kPa | 108.91
318.03 K, 3065 kPa | 109.71
320.68 K, 6570 kPa | 110.62
320.8 K, 4151 kPa | 110.05
323.36 K, 7700 kPa | 110.28
323.57 K, 5240 kPa | 110.62
326.04 K, 8827 kPa | 110.62
326.35 K, 6332 kPa | 111.42
328.72 K, 9952 kPa | 112.22
329.14 K, 7427 kPa | 112.67
331.41 K, 11079 kPa | 112.9
331.93 K, 8524 kPa | 113.36
334.09 K, 12201 kPa | 113.24
334.72 K, 9619 kPa | 113.47
337.49 K, 10709 kPa | 113.7
340.26 K, 11796 kPa | 114.61

CCC [propane]
Conditions | molar heat capacity at constant volume [J/K/mol]
236.31 K, 2219 kPa | 65.79
238.69 K, 4211 kPa | 66.23
241.04 K, 6180 kPa | 66.67
243.36 K, 8127 kPa | 66.58
245.69 K, 10074 kPa | 66.94
250.09 K, 2085 kPa | 67.6
252.35 K, 3780 kPa | 68.13
254.59 K, 5476 kPa | 68.13
256.82 K, 7162 kPa | 67.91
259.03 K, 8839 kPa | 68.48
261.25 K, 10512 kPa | 68.61
264.41 K, 2430 kPa | 69.1
266.66 K, 3950 kPa | 69.19
268.92 K, 5488 kPa | 70.24
271.21 K, 7042 kPa | 70.33
273.5 K, 8593 kPa | 70.2
275.81 K, 10155 kPa | 70.55
283.73 K, 2629 kPa | 71.61
284.6 K, 1745 kPa | 71.3
286.92 K, 3057 kPa | 71.88
287.25 K, 4679 kPa | 71.92
289.25 K, 4373 kPa | 72.23
289.61 K, 6040 kPa | 71.96
291.57 K, 5681 kPa | 72.32
291.99 K, 7411 kPa | 72.36
293.9 K, 6981 kPa | 72.98
294.35 K, 8774 kPa | 72.85
296.28 K, 8309 kPa | 73.15
296.69 K, 10124 kPa | 72.93
298.66 K, 9622 kPa | 73.2
299 K, 11450 kPa | 73.24
300.98 K, 10901 kPa | 74.35
301.28 K, 12754 kPa | 73.24
303.33 K, 12177 kPa | 74.65
305.66 K, 13418 kPa | 75.09
306.13 K, 1912 kPa | 74.7
308.58 K, 3022 kPa | 75.58
311.04 K, 4140 kPa | 75.62
313.5 K, 5260 kPa | 76.42
315.96 K, 6379 kPa | 76.55
318.43 K, 7498 kPa | 76.59
320.89 K, 8615 kPa | 77.52
323.37 K, 9735 kPa | 77.74
325.84 K, 10852 kPa | 78.18
328.28 K, 11956 kPa | 78.89
330.71 K, 13052 kPa | 79.33
332.33 K, 10672 kPa | 78.89
334.81 K, 11722 kPa | 79.81
337.26 K, 12761 kPa | 80.47
339.76 K, 13813 kPa | 80.65
